Results published in patent US20200016207A1, “[…] c-MPL PROVIDES LIGAND-DEPENDENT CO-STIMULATION AND CYTOKINE SIGNALS TO TCR-ENGINEERED T CELLS” (Baylor College of Medicine, priority 2017, published 2020).

Legend:
[1] = test system: immune synapses between TCR+c-MPL+ T cells and BV173 leukemia cells; assay: Immunological synapse imaging (confocal microscopy); type: cell-based, human; conditions: mean±SD
Description: T cells isolated from sequential killing co-cultures and fresh BV173 target cells were mixed at E:T 1:2, incubated for 10 minutes, fixed, permeabilized, stained with the appropriate antibodies, and analyzed on a Leica TCS SP8 laser scanning microscope. T cells were co-cultured with BV173 cells at an E:T ratio of 1:5 in CTL media with no cytokines, rhTPO (50 ng/mL) or EP (0.1 μg/mL). After one killing (no cytokine condition) or three sequential killings (rhTPO and EP conditions), cells were collected and dead cells removed (Dead Cell Removal Kit, Miltenyi) (FIG. 4A). For confocal microscopy, T cells and fresh BV173 target cells were mixed at E:T ratio of 1:2, incubated for ten minutes in a tube and ten minutes on silane-coated glass slides (Electron Microscopy Sciences) at 37° C. Cells were then permeabilized and fixed with Perm/Fix solution (BD) for 15 minutes at room temperature and stained with anti-Pericentrin (rabbit, Abcam) and anti-Perforin Alexa-488 (mouse, BD Biosciences) primary antibodies. Phalloidin 568 (Life Technologies) was used to detect F-actin. Cells were imaged as Z stacks of 0.2 μm thickness to cover their entire volume on a Leica TCS SP8 laser scanning microscope using a 100× objective. Images were acquired with the LASAF software (Leica) and analyzed with Imaris software (Imaris) and Fiji.

[2] = test system: c-MPL+ T cells; assay: EP dose-titration, T cell expansion on OKT3/CD28-coated plates; type: cell-based, human
Description: Similar results were obtained with the TPO small molecule agonist EP. A dose-titration experiment was used to determine the optimal concentration of EP to support c-MPL+ T cell expansion (FIG. 2C). EP was previously shown to inhibit leukemia cell proliferation at higher concentrations (1-10 μg/ml) by reduction of intracellular iron, a c-MPL independent effect (Roth et al., 2012). NT or c-MPL+ T cells were re-activated on OKT3/CD28-coated plates in the presence of different EP concentrations and expansion of viable T cells was determined after 7 days. […] Thus, the effective EP concentration for c-MPL+ T cells was about 1 log lower than in previous reports assessing effects of EP on megakaryocytic progenitor cells or leukemia cells *Roth et al., 2012; Will et al., 2009). To assess c-MPL ligand-dependent signaling in TCR+c-MPL+ T cells, cells were left untreated (noCK) or treated with TPO50 or EP for 1 (left) or 24 hours (right). […] Next, it was evaluated whether rhTPO enhanced the anti-tumor function of TCR+c-MPL+ T cells using two different HLA-A*0201+survivin+hematologic malignancies as targets (U266 multiple myeloma, BV173 leukemia) (FIGS. 2E-2F). […] Again, addition of IL2 led to significant but antigen-independent enhancement of T cell expansion.

[3] = after three tumor cell challenges
[4] = baseline after T cell expansion

Q: Which results are given for `CC1=NN(c2ccc(C)c(C)c2)C(=O)/C1=N\Nc1cccc(-c2cccc(C(=O)O)c2)c1O` [EP, eltrombopag, reference compound]?
A: MTOC to synapse distance, co-culture [1, 3]: 1.09±1.16 μm; perforin distance to the synapse (perforin convergence), co-culture [1, 3]: 4.25±1.28 μm; actin accumulation at the synapse, co-culture ([1]; after three tumor cell challenges, rhTPO 50 ng/mL or EP 0.1 μg/mL): 53.29±12.47%; MTOC to synapse distance, baseline [1, 4]: 2.42±2.14 μm; actin accumulation at the synapse, baseline [1, 4]: 40.95±14.82%; perforin distance to the synapse (perforin convergence), baseline [1, 4]: 4.26±2.04 μm; effect of EP treatment at 3 μg/ml on T cells ([2]; 3 μg/ml): uniformly lethal to T cells; effect of EP levels higher than 0.1 μg/ml on T cells ([2]; 7 days): toxic to the T cells; EP concentration retained to support c-MPL+ T cell expansion ([2]; 7 days, OKT3/CD28-coated plates): 0.1 µg/mL
